According to patent US20090227619A1, “Harmine derivatives, intermediates used in their preparations, preparation processes and use therefo” (priority 2003, published 2009):
Where two headings read alike, the source gives them in different places.

Assays:
HepG2 = experiment: In vitro cytotoxicity, IC50 by MTT method, HepG2; type: cell-based, human
How it was run: (§1)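 MTT viability, 48 h exposure: cells 10^5/ml in RPMI1640 + 10% FBS, 37 °C/5% CO2; MTT 4 h, DMSO solubilisation, A490.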

PLA-801 = experiment: In vitro cytotoxicity, IC50 by MTT method, PLA-801; type: cell-based
How it was run: as §1

Bel-7402 = experiment: In vitro cytotoxicity, IC50 by MTT method, Bel-7402; type: cell-based
How it was run: as §1

BGC-823 = experiment: In vitro cytotoxicity, IC50 by MTT method, BGC-823; type: cell-based
How it was run: as §1

Hela = experiment: In vitro cytotoxicity, IC50 by MTT method, Hela; type: cell-based
How it was run: as §1

Lovo = experiment: In vitro cytotoxicity, IC50 by MTT method, Lovo; type: cell-based
How it was run: as §1

NIH3T3 = experiment: In vitro cytotoxicity, IC50 by MTT method, NIH3T3; type: cell-based
How it was run: as §1

CT-DNA [1] = experiment: DNA thermal denaturation, determination of ΔTm; type: binding; details: 20 uM compound, Tm of CT-DNA alone 61° C.
Description: Experiments were carried out in PE buffer (1 mM Na2HPO4, 0.1 mM EDTA, pH 7.6) in a thermostatically controlled cell hold, and the quartz cuvette (1 cm path length) was heated by circulating water at a heating rate of 0.5° C./min from 25 to 95° C. Amsacrine and Doxorubicin Hydrochloride were used as standards. In all cases, the concentration of CT-DNA was 15 ug/ml. The ‘melting’ temperature Tm was taken as the mid-point of the hyperchromic transition.
ΔTm=Tm^drug-DNA complex−Tm^DNA alone
The ΔTm of each compound was calculated, Experiments were repeated three times, and an average value was calculated.

CT-DNA [2] = experiment: UV absorption spectrum method with CT-DNA; type: binding; details: CT-DNA 40 ug/ml, compound 20 uM, 37° C. for 2 h, OD at 260 nm
Description: Compounds to be tested (20 uM) were added into the PE buffer solution, and its scan curve was identified by the spectrograph at a wavelength of from 200 to 400 nm. CT-DNA (40 ug/ml) and compounds to be tested (20 uM) were added into the PE buffer solution. The mixture was cultured at 37° C. for 2 h, and its scan curve was identified by the UV spectrograph at a wavelength of from 200 to 400 nm. […] After that, the OD value at 260 nm of the scan curve of the medicaments tested and that of the CT-DNA mixture OD value at 260 nm of the scan curve were calculated and compared to determine the influences of the medicaments tested on the UV absorption spectrum of the DNA molecules.

[3] = Homo sapiens, HepG2 cell strain, read-out: IC50 HepG2
[4] = PLA-801 cell strain, read-out: IC50 PLA-801
[5] = Homo sapiens, Bel-7402, Bel7402 cell strain, read-out: IC50 Bel7402
[6] = Homo sapiens, BGC-823, BGC823 cell strain, read-out: IC50 BGC823
[7] = Homo sapiens, Hela cell strain, read-out: IC50 Hela
[8] = Homo sapiens, Lovo cell strain, read-out: IC50 Lovo
[9] = Mus musculus, NIH3T3 cell strain, read-out: IC50 NIH3T3
[10] = CT-DNA 15 ug/ml, PE buffer pH 7.6

Row | Compound | ΔTm (CT-DNA [1]; CT-DNA thermal denaturation) [°C] | IC50 (HepG2; [3]) [µM] | IC50 (PLA-801; [4]) [µM] | IC50 (Bel-7402; [5]) [µM] | IC50 (BGC-823; [6]) [µM] | IC50 (Hela; [7]) [µM] | IC50 (Lovo; [8]) [µM] | IC50 (NIH3T3; [9]) [µM] | melting point [°C] | further results
1 | COc1ccc2c3ccnc(C)c3n(CCO)c2c1 [Compound 5, 9-hydroxyethyl-7-methoxy-1-methyl-β-carboline] | 5.9 |  |  |  |  |  |  |  |  | IC50 (HepG2; Homo sapiens, HepG2, MTT, read-out: IC50): 310 µM; IC50 (PLA-801; PLA-801, MTT, read-out: IC50): 80 µM; IC50 (Bel-7402; Homo sapiens, Bel-7402, BeI7402, MTT, read-out: IC50): 240 µM; IC50 (BGC-823; Homo sapiens, BGC-823, BGC823, MTT, read-out: IC50): 200 µM; IC50 (Hela; Homo sapiens, Hela, MTT, read-out: IC50): 30 µM; IC50 (Lovo; Homo sapiens, Lovo, MTT, read-out: IC50): 30 µM; IC50 (NIH3T3; Mus musculus, NIH3T3, MTT, read-out: IC50): 80 µM
2 | COc1ccc2c3ccnc(C)c3n(Cc3c(F)c(F)c(F)c(F)c3F)c2c1 [Compound 7, 9-(2′,3′,4′,5′,6′-pentafluoro)benzyl-7-methoxy-1-methyl-β-carboline] | 7.5 |  |  |  |  |  |  |  |  | IC50 (HepG2; HepG2, MTT, read-out: IC50): 50 µM; IC50 (PLA-801; PLA-801, MTT, read-out: IC50): 420 µM; IC50 (Bel-7402; BeI7402, MTT, read-out: IC50): 40 µM; IC50 (BGC-823; BGC823, MTT, read-out: IC50): 20 µM; IC50 (Hela; Hela, MTT, read-out: IC50): 40 µM; IC50 (Lovo; Lovo, MTT, read-out: IC50): 40 µM; IC50 (NIH3T3; NIH3T3, MTT, read-out: IC50): 50 µM
3 | CCCCOC(=O)c1cc2c3ccccc3n(CC)c2cn1 [Compound 39, butyl 9-ethyl-β-carboline-3-carboxylate] | 1.6 | 70 | 110 | 70 | 80 | 70 | 80 | 80 | 86 to 88 | 
4 | CC(=O)COc1cc2c3ccccc3n(Cc3ccccc3)c2cn1 [Compound 43, 9-benzyl-3-acetylmethoxy-β-carboline] |  | 300 | 250 | 130 | > 3000 | 500 | > 3000 | > 3000 | 141 to 142 | Influence on the UV absorption of DNA (CT-DNA [2]): increase the UV absorption of DNA
5 | Cc1nc(C(=O)O)cc2c3ccccc3n(C)c12 [Compound 62, 1,9-dimethyl-β-carboline-3-carboxylic acid] |  | 1380 | 2350 | 1500 | 640 | 1110 | 440 | 630 | 262 to 264 | 
6 | CCn1c2ccccc2c2cc(C(=O)O)nc(C)c21 [Compound 63, 9-ethyl-1-methyl-β-carboline-3-carboxylic acid] |  | 2800 | 2330 | 1820 | 1660 | 970 | 590 | 710 | 243 to 245 | 
7 | Cc1nc(C(=O)O)cc2c3ccccc3n(CCCc3ccccc3)c12 [Compound 65, 9-phenylpropyl-1-methyl-β-carboline-3-carboxylic acid] |  | 140 | 210 | 560 | 270 | 220 | 50 | 110 | 186 to 188 | 
8 | CCCc1nc(C(=O)OCC)cc2c3ccccc3n(C)c12 [Compound 68, ethyl 1-propyl-9-methyl-β-carboline-3-carboxylate] |  | 100 | 140 | 460 | 110 | 1360 | 60 | 80 | 108 to 109 | 
9 | CCCc1nc(C(=O)OCC)cc2c3ccccc3n(CC)c12 [Compound 69, ethyl 1-propyl-9-ethyl-β-carboline-3-carboxylate] |  | 110 | 710 | 330 | 230 | 90 | 100 | 100 | 86 to 87 | 
10 | CCCc1nc(C(=O)OCC)cc2c3ccccc3n(Cc3ccccc3)c12 [Compound 70, ethyl 9-benzyl-1-propyl-β-carboline-3-carboxylate] |  | 790 | 160 | 1010 | 1010 | 810 | 1170 | 1570 | 158 to 159 | 
11 | CCCc1nc(C(=O)OCC)cc2c3ccccc3n(CCCc3ccccc3)c12 [Compound 71, ethyl 9-phenylpropyl-1-propyl-β-carboline-3-carboxylate] |  | 120 | 260 | 910 | 1320 | 60 | 60 | 190 | 92 to 93 | 
12 | CCCc1nc(C(=O)O)cc2c3ccccc3n(C)c12 [Compound 72, 9-methyl-1-propyl-β-carboline-3-carboxylic acid] |  | 1170 | 1400 | > 3000 | 540 | 960 | 210 | 570 | 181 to 183 | 
13 | CCCc1nc(C(=O)O)cc2c3ccccc3n(CC)c12 [Compound 73, 1-propyl-9-ethyl-β-carboline-3-carboxylic acid] |  | 540 | 710 | 570 | 390 | 420 | 260 | 390 | 189 to 191 | 
14 | COC(=O)c1cc2c3ccccc3n(C)c2c(-c2ccccc2)n1 [Compound 76, methyl 1-phenyl-9-methyl-β-carboline-3-carboxylate] |  | > 3000 | > 3000 | 620 | > 3000 | > 3000 | > 3000 | > 3000 | 205 to 207 | 
15 | CCn1c2ccccc2c2cc(C(=O)OC)nc(-c3ccccc3)c21 [Compound 77, methyl 1-phenyl-9-ethyl-β-carboline-3-carboxylate] |  | > 3000 | > 3000 | 380 | > 3000 | 2660 | 70 | 140 | 169 to 170 | 
16 | c1ccc2c(c1)[nH]c1cnccc12 [Compound 80, β-carboline] | 3.1 |  |  |  |  |  |  |  |  | IC50 (HepG2; Homo sapiens, HepG2, read-out: IC50 HepG2): 230 µM; IC50 (PLA-801; read-out: IC50 PLA-801): 20 µM; IC50 (Bel-7402; Homo sapiens, Bel-7402, read-out: IC50 Bel7402): 380 µM; IC50 (BGC-823; Homo sapiens, BGC-823, read-out: IC50 BGC823): 270 µM; IC50 (Hela; Homo sapiens, HeLa, read-out: IC50 Hela): 350 µM; IC50 (Lovo; Homo sapiens, LoVo, read-out: IC50 Lovo): 40 µM; IC50 (NIH3T3; Mus musculus, NIH3T3, read-out: IC50 NIH3T3): 20 µM
17 | Cn1c2ccccc2c2ccncc21 [Compound 81, 9-methyl-β-carboline] | 3.3 | 100 | 220 | 300 | 200 | 330 | 220 | 120 |  | 
18 | CCn1c2ccccc2c2ccncc21 [Compound 82, 9-ethyl-β-carboline] | 4.2 | 170 | 130 | 310 | 170 | 230 | 160 | 100 |  | Influence on the UV absorption of DNA (CT-DNA [2]): reduce the UV absorption of DNA
19 | COc1cccc2c1C(=O)c1c(O)c3c(c(O)c1C2=O)C[C@@](O)(C(=O)CO)C[C@@H]3O[C@H]1C[C@H](N)[C@H](O)[C@H](C)O1 [adriamycin, reference compound] | 10.8 |  |  |  |  |  |  |  |  | ΔTm (CT-DNA [1]; [10]): 10.8 °C; Influence on the UV absorption of DNA (CT-DNA [2]): reduce the UV absorption of DNA
20 | CC[C@@]1(O)C(=O)OCc2c1cc1n(c2=O)Cc2cc3ccccc3nc2-1 [camptothecin, reference compound] | −2.5 |  |  |  |  |  |  |  |  | ΔTm (CT-DNA [1]; [10]): −2.5 °C; Influence on the UV absorption of DNA (CT-DNA [2]): increase the UV absorption of DNA
